Experimental data taken from patent publication US10799522B2, “Compositions and methods relating to galectin detection” (Wayne State University, priority 2015, dated 2020).

Test system: orthotopic human breast carcinoma xenograft (MCF10DCIS)
Assay: dynamic PET/CT imaging, pharmacokinetics and biodistribution in tumor-bearing mice
Format: in vivo, immunedeficient nu/nu mice
Conditions: 10 mg/kg i.v. 15 min prior to [^18F]FPDTG; at 60 min post injection
Experimental: A single (unilateral) orthotopic breast carcinoma xenograft was established in immunedeficient nu/nu mice by injection of human breast ductal carcinoma in situ cells (MCF10DCIS) in Matrigel into one of the upper mammary fat pad.
Tumor-bearing mice (˜20-25 g) were anesthetized using inhalation of 2% isoflurane in oxygen, and their body temperature maintained at 38° C. by a heating pad with a feedback temperature control. […] Dynamic PET images were acquired in list-mode and reconstructed using OSEM algorithm at multiple time frames post radiotracer administration (0-2, 2-4, 4-6, 6-8, 8-10, 10-20, 20-30, 30-40, 40-50, 50-60 min). Thereafter, while still fixed to the positioning bed, the mice were moved with the bed into the gantry of INVEON SPECT/CT (Siemens), and CT images were acquired over the whole body area for attenuation correction of PET images and for production of PET/CT images. PET/CT fusion images were generated and analyzed in a similar manner as when studying rats.

OC[C@H]1O[C@@H](S[C@@H]2O[C@H](CO)[C@H](O)[C@H](n3cc(-c4cccc(F)c4)nn3)[C@H]2O)[C@H](O)[C@@H](n2cc(-c3cccc(F)c3)nn2)[C@H]1O [FPTDG, bis-{3-deoxy-3-[4-(3-fluorophenyl)-1H-1,2,3-triazol-1-yl]-β-D-galactopyranosyl)sulfane, reference compound]
blockade of the radiotracer uptake and retention in DCIS lesion: > 90%
